Assay results taken from ChEMBL document CHEMBL1201862, “PubChem BioAssay data set” (2004).
The source made the active and inactive calls. Rule as the data show it, for most assays here: actives have a measured EC50 and inactives only a lower limit.

How the values were obtained:
[1] = target: T1, RNA-binding protein pos-1 (Caenorhabditis elegans, UniProt G5EF15); experiment: disruptors of C. elegans POS-1 RNA interaction – biochemical, fluorescence polarization, dose response (AID 1964);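 also: purified POS-1 fused to maltose binding protein made in E. coli; potency of compounds blocking POS-1 binding to fluorescent RNA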
T1 sequence (G5EF15 whole entry): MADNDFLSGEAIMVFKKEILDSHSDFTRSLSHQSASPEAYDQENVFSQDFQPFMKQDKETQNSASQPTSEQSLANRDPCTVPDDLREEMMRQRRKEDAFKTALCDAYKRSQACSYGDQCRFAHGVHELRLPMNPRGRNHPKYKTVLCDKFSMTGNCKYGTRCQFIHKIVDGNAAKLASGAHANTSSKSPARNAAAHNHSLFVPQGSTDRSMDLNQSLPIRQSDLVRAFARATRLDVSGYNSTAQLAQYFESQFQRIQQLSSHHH

[2] = target: T2, Zinc finger protein mex-5 (Caenorhabditis elegans, UniProt Q9XUB2); experiment: potency of MEX-5 RNA-binding blockers – biochemical, C. elegans, fluorescence polarization, dose response (AID 1960)
T2 sequence (Q9XUB2 whole entry): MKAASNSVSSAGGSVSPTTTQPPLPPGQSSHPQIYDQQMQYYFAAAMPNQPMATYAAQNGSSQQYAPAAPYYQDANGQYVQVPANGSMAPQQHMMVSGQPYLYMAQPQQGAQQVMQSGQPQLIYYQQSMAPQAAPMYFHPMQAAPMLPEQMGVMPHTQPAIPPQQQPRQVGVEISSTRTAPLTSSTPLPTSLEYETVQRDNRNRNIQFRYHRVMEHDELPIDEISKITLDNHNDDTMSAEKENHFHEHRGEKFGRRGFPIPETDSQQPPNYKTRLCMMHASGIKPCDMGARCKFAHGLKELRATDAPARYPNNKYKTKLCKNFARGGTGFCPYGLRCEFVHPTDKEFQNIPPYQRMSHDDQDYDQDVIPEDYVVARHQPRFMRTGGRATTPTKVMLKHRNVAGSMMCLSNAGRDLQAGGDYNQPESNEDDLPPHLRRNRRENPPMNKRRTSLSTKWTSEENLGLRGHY

[3] = target: FAD-linked sulfhydryl oxidase ALR (Homo sapiens, UniProt P55789); experiment: ALR-catalysed DTT oxidation blockers – biochemical, H2O2 detection, luminescence, cherry-pick, dose response (AID 493248)
[4] = Luminescence Cell-Based Dose Retest to Confirm Inhibitors of Cancer Stem Cells. [Related pubchem assays (depositor defined):AID2717, AID2721]; type: functional; conditions: Homo sapiens
[5] = target: T3, Corticotropin-releasing factor receptor 2/Corticotropin-releasing factor-binding protein (Homo sapiens, UniProt P24387+Q13324); experiment: activators of CRF receptor 2 with binding protein – uHTS hits, confirmation (AID 602473); type: functional; conditions: read-out: EC50_Mean
T3 sequence (Q13324 whole entry): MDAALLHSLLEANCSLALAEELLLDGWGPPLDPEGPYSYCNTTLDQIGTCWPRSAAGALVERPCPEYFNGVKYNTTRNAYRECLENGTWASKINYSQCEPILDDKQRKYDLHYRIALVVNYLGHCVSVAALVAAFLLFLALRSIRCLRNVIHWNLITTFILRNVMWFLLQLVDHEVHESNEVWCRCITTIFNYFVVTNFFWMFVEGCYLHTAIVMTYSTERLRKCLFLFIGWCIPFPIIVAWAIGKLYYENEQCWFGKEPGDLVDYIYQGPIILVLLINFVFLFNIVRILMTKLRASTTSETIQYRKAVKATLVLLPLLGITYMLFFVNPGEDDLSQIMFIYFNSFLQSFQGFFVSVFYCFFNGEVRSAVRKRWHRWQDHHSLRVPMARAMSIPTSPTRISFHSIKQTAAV
T3 sequence (P24387 whole entry): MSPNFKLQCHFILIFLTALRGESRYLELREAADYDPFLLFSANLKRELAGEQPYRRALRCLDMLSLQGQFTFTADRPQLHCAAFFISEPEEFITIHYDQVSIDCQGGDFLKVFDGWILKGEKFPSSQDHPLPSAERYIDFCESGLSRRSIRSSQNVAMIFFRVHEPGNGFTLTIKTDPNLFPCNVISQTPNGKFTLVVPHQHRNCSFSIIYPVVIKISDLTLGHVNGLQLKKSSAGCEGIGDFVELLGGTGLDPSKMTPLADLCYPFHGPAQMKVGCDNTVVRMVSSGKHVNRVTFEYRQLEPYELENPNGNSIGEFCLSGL

[6] = NIH3T3 cell viability loss – ATP luminescence, mouse fibroblasts, counter-screen, dose response (AID 2010); type: functional, cell-based;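 also: cells exposed to compound for about 90 hours before reading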
[7] = target: T4, Rac GTPase-activating protein 1 (Homo sapiens, UniProt Q9H0H5); experiment: blockers of MgcRacGAP-driven Rac1 GTP hydrolysis – biochemical, ADP Hunter fluorescence, primary and confirmatory, confirmation (AID 624330); type: functional
T4 sequence (Q9H0H5 whole entry): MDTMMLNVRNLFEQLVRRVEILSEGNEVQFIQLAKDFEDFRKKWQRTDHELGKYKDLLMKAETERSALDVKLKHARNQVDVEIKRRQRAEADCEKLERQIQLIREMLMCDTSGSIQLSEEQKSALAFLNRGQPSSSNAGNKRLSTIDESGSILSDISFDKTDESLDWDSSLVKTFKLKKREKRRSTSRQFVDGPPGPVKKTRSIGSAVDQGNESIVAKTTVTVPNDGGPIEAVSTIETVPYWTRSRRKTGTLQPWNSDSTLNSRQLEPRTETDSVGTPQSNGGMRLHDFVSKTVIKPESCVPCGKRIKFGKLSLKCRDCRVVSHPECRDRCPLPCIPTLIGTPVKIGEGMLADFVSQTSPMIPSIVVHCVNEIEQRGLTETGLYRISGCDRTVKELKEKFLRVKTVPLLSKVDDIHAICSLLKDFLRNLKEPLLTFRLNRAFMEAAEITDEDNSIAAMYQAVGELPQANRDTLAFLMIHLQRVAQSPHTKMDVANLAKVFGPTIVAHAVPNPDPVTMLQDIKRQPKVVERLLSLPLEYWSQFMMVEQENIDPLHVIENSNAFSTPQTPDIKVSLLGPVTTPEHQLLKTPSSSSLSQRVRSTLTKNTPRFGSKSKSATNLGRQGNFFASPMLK

[8] = Trypanosoma cruzi growth suppression in host cells – NIH3T3 host cells, beta-gal luminescence, confirmation (AID 2044); type: functional, cell-based;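 also: intracellular parasites grown in NIH/3T3 mouse fibroblasts as host cells; luminescent beta-galactosidase reporter signal from transgenic T. cruzi replicating inside host cells; inhibitors lower the luminescence signal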
[9] = viability of uninfected HEp-2 cells – cell-based, HTS, cytotoxicity control for RSV inhibitor project, dose response (AID 2410); type: functional; conditions: human respiratory syncytial virus
[10] = Luminescence Cell-Based Dose Confirmation HTS to Identify Inhibitors of Platelet Dense Granule Release. [Related pubchem assays: 1663 (Primary HTS), 1678 (Summary of Project)]; type: functional
[11] = target: Luciferin 4-monooxygenase (Photinus pyralis, UniProt P08659); experiment: inhibition of purified Photinus pyralis luciferase – biochemical, luminescence, dose response (AID 1891)
Streptococcus = experiment: GAS UMAA2166 growth inhibition – luminescence, BacTiterGlo, counter-screen for streptokinase expression inhibitor project, dose response (AID 1915); type: functional, organism-based;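 also: potency for reduction of bacterial viability or growth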
Streptokinase A = target: T5, Streptokinase A (Streptococcus pyogenes serotype M1, UniProt P10520); experiment: viability-normalized secreted streptokinase activity reduction – plasminogen activation absorbance, OD405, dose response (AID 1914); type: functional, Streptococcus pyogenes M1 GAS;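 also: secreted streptokinase activity via plasminogen activation per viability signal from cell pellet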
T5 sequence (P10520 whole entry): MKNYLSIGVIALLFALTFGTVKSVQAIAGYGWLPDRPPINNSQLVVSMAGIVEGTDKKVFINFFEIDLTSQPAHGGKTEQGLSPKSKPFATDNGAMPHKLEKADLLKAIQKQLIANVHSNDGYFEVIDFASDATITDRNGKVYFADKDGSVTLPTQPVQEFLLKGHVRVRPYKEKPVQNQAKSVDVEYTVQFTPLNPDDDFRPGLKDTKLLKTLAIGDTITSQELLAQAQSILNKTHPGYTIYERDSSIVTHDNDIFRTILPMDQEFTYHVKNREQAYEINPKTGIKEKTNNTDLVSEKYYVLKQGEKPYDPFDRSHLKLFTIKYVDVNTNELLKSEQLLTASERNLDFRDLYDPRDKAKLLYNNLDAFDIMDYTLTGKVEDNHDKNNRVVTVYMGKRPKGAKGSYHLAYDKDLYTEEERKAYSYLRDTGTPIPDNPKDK

[12] = tested on: Streptococcus sp. 'group A'; experiment: Streptococcus pyogenes SK(-)GAS viability under kanamycin – luminescence, BacTiterGlo, confirmation, counter-screen for streptokinase expression inhibitor project, dose response (AID 1900); type: functional, organism-based

FAD-linked sulfhydryl oxidase ALR, sequence (P55789 whole entry): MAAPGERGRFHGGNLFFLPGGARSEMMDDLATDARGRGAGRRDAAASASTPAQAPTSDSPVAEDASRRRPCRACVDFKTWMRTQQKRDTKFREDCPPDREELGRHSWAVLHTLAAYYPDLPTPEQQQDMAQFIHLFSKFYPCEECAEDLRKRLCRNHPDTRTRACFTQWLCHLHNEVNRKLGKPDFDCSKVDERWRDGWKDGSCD
Luciferin 4-monooxygenase, sequence (P08659 whole entry): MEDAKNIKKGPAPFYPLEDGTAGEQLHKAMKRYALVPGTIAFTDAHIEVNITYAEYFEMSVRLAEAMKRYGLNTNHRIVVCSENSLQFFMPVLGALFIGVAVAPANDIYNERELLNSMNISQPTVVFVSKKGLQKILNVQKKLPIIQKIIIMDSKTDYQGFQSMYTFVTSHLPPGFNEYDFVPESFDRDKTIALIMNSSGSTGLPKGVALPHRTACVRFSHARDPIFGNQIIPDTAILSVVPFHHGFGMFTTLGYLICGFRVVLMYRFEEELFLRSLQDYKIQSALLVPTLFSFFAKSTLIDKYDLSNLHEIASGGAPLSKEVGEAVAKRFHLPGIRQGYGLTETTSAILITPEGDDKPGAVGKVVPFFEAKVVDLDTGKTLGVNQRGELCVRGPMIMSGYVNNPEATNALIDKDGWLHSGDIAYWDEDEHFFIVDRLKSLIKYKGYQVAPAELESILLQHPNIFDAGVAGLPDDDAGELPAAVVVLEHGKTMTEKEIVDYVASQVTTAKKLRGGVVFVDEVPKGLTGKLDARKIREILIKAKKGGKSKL

| Structure (SMILES) | EC50 [1] | EC50 [2] | AC50 [3] | also measured |
| --- | --- | --- | --- | --- |
| COc1cccc(C2(O)CCN(CC(=O)Nc3nc(C)cs3)CC2)c1 | > 300 µM (not active) | > 300 µM (not active) |  |  |
| CCCCC1=CC2=CC(=O)C(C)(OC(=O)c3cnc4ccccc4n3)C(=O)C2=CO1 (stereo not given) | 19.9 µM (active) | 19 µM (active) |  |  |
| CCOC(=O)c1ccc(-n2c(CCC(=O)O)ccc2-c2ccccc2)cc1 | > 300 µM (not active) | > 300 µM (not active) |  |  |
| Cc1ccc(-c2cn3c(n2)SCC3)cc1 |  |  | 0.513 µM (active) |  |
| CC(=O)NCCNc1ccc([N+](=O)[O-])cc1C#N | > 300 µM (not active) | > 300 µM (not active) |  |  |
| CCCOC(=O)C(=O)NNc1ccccc1 |  |  |  | AC50 [4]: 0.95 µM (active) |
| CC(=O)N1N=C2C3CCN(CC3)C2C1c1cccc2ccccc12 (stereo not given) |  |  |  | EC50 [5]: > 53 µM (inactive) |
| COc1cc(/C=C(\C#N)C(=O)NCCc2ccccc2)cc(OC)c1O |  |  |  | EC50 [5]: > 53 µM (inactive) |
| COc1cc(C)c(N)cc1C(C)C |  |  | 0.027 µM (active) | EC50 [6]: > 60 µM (not active); IC50 [7]: 113 µM (active); EC50 [8]: 16.9 µM (active) |
| CC(NC(=O)c1ccc(N2CCNCC2)c([N+](=O)[O-])c1)C12CC3CC(CC(C3)C1)C2 (stereo not given) |  |  |  | AC50 [4]: 10.2 µM (active); CC50 [9]: 16 µM (active) |
| Oc1ccccc1-c1nnc(S)n1Cc1ccco1 |  |  | 4.75 µM (active) |  |
| CCn1c2ccccc2c2cc(NC(=O)CSc3nnc(-c4cccc(Cl)c4)o3)ccc21 |  |  |  | EC50 [10]: > 112 µM (not active); EC50 [11]: > 112 µM (not active) |
| CCN(CC)c1ccc(NC(=O)CN2CCN(c3nc(C)cc(C)n3)CC2)cc1 |  |  | 1.03 µM (active) |  |
| COc1ccc(N2CCN(C(=O)CCNC(=O)c3ccc(C(C)(C)C)cc3)CC2)cc1 |  |  | 10.1 µM (active) |  |
| N#CC1=C(N)C(C#N)(C#N)C(c2cccnc2)C2CCCC=C12 (stereo not given) | 22.2 µM (active) | 17.5 µM (active) |  |  |
| COc1cc(OC)cc(C(=O)Nc2ccc(S(=O)(=O)Nc3cc(C)nc(C)n3)cc2)c1 |  |  | 1.68 µM (active) |  |
| CC(=O)Nc1ccc2nc(NC(=O)c3cccs3)sc2c1 |  |  |  | EC50 [10]: 6.27 µM (active); EC50 [11]: 2.26 µM (active) |

| Structure (SMILES) | EC50 [1] | EC50 [2] | AC50 [3] | also measured |
| --- | --- | --- | --- | --- |
| CC1CCN(C(=S)c2ccc(N(C)C)cc2)CC1 |  |  | 0.915 µM (active) |  |
| Cc1c(C(=O)N(C)C)c2cc(Cl)ccc2n1O |  |  | 0.722 µM (active) |  |
| N#CC(C#N)=Cc1ccc(-c2ccc(S(=O)(=O)NC(=N)N)cc2)o1 | > 300 µM (not active) | 236 µM (active) |  |  |
| Cc1cc2c(cc(C(=O)O)n2C)s1 |  |  | 30.9 µM (active) |  |
| Cc1onc(-c2c(F)cccc2Cl)c1C(=O)N1CCCc2ccccc21 | > 300 µM (not active) | > 300 µM (not active) |  |  |
| CCc1nc(N2CCC(C)CC2)c2oc3ccccc3c2n1 |  |  |  | AC50 [4]: 4.63 µM (active) |
| CC(C)Oc1ccc(N2CC(C(=O)Nc3ccc(N4CCOCC4)cc3)CC2=O)cc1 (stereo not given) |  |  |  | EC50 [10]: > 112 µM (not active); EC50 [11]: > 112 µM (not active) |
| C1=C(c2sc3ccccc3c2-c2ccc(OCCN3CCOCC3)cc2)CCCC1 |  |  |  | AC50 [4]: 2.71 µM (active) |
| CCCc1cc(O)nc(SCC(=O)Nc2sc(C(N)=O)c(C)c2C(=O)OCCOC)n1 |  |  |  | AC50 [4]: 3.6 µM (active) |
| O=CN/N=C/c1c(O)ccc2ccccc12 | > 300 µM (not active) | 5.35 µM (active) |  |  |
| C(=N\N=C(\Nc1ccccc1)c1ccccn1)/c1ccccn1 | > 300 µM (inconclusive) |  |  |  |
| C/C(=N\C1CCCC1)c1c(C)[nH]n(-c2nc3ccccc3s2)c1=O | > 300 µM (not active) | > 300 µM (not active) | 1.24 µM (active) |  |
| CC(=O)N(C)c1ccc(/N=N/c2c(C)[nH]n(C(N)=S)c2=O)cc1 | > 300 µM (not active) | 24.2 µM (active) |  |  |
| C/C(CC(=O)Nc1ccc(Cl)c(C(F)(F)F)c1)=N\NC(=O)c1cc2ccccc2cc1O |  |  |  | EC50 (Streptococcus): 8.14 µM (active); AC50 [4]: 8.61 µM (active); EC50 (Streptokinase A): > 150 µM (not active); EC50 [12]: 1.57 µM (active) |
| Oc1c(/C=N/c2ccccc2Cl)[nH]c2ccccc12 | > 300 µM (not active) | > 300 µM (not active) |  |  |
| Cc1ccc2nc(C)cc(N/N=C/c3ccccc3O)c2c1 |  |  | 4.03 µM (active) |  |
